# Where two headings read alike, the source gives them in different places.
# How the values were obtained:
# [1] = biological target: T1, recombinant human α4β2 nicotinic acetylcholine receptor (Homo sapiens, UniProt P17787+P43681); assay: Determination of IC50 and Kb values, aequorin luminescence (intracellular calcium) assay in CHO cells; format: cell-based; conditions: antagonist mode vs epibatidine
# T1 construct: expressed in transfected cells
# Method: Determination of IC50 and Kb Values for Nicotinic Acetylcholine α4β2 Receptor Ligands
# A stable CHO cell line expressing recombinant human α4β2 nicotinic acetylcholine receptor transiently expressing aequorin protein was used for cell-based assay. The assay offers a non-radioactive based approach to determine binding of a compound to ligand gated ion channels. In this specific assay, the level of intracellular calcium, which is modulated by activation or inhibition of the channel is measured. Both the channel and aequorin genes are expressed at high level under the control of powerful CMV promotor.
# The above cells were grown in 96 well clear bottom white plates in Hams F12 medium containing 10% fetal bovine serum (FBS). Prior to the addition of compounds and/or agonist, cells were serum starved for six hours. Coelentarazine (a prosthetic group for aequorin protein) was added in the medium containing 0.1% dialyzed serum and incubated overnight at 27° C. Cells were washed with assay buffer and increasing concentration of the test compound or standard were added to the plate for antagonist mode. A fixed concentration of the agonist (eipbatidine) was injected into the plate and luminescence was measured for 10 seconds. For evaluation of the compound in agonist mode, increasing concentration of the standard or test compound were injected and the luminescence was measured. Luminescence units were plotted against the compound concentrations using Graphpad software. IC50 values of the compounds were defined as the concentration required in reducing the luminescent units by 50%. The Kb values were calculated by feeding the concentration of the agonist used in the assay and its EC50 value in the same software.
# Literature References: Karadsheh M. S., Shah M. S., Tang X., Macdonald R. L. and Stitzel J. A. Functional characterization of mouse α4β2 nicotinic acetylcholine receptors stably expressed in HEK293T cells. J. Neurochem. 2004, 91, 1138-1150.
# [2] = biological target: Nicotinic Acetylcholine α4β2 Receptor (UniProt P09483+P12390); assay: Binding assay for human or rat nicotinic acetylcholine α4β2 receptor ([3H]Cytisine displacement); conditions: [3H]Cytisine 2.5 nM; rat brain frontal cortex or recombinant human receptor in CHO cells (not specified which); read-out: Ki
# Method: Binding Assay for Human or Rat Nicotinic Acetylcholine α4β2 Receptor
# • Receptor source: Rat brain frontal cortex or recombinant human cDNA expressed in CHO cells • Radioligand: [^3H]Cytisine 15-40 Ci/mmole • Final ligand concentration—[2.5 nM] • Non-specific determinant: Epibatidine—[0.1 μM] • Reference compound: Epibatidine • Positive control: Epibatidine Incubation Conditions:
# Increasing concentrations of test compounds or standard were incubated with membrane receptors and radioligand in 120 mM NaCl, 2.5 mM KCl, 1 mM CaCl2, 1 mM MgCl2 and 50 mM TRIS-HCl (pH 7.4) for 60 minutes at room temperature. The reaction was terminated by rapid vacuum filtration onto the glass fiber filters. Radioactivity trapped onto the filters was determined and compared to the control values in order to ascertain any interactions of the test compound(s) with either cloned human or rat receptor binding site.
# Literature Reference: Bunnelle W. H., Daanen J. F., Ryther K. B., Schrimpf M. R., Dart M. J., Gelain A., Meyer M. D., Frost J. M., Anderson D. J., Buckley M., Curzon P., Cao Y-J., Puttfarcken P., Searle X., Ji J., Putman C. B., Surowy C., Toma L. and Barlocco D. Structure-Activity Studies and Analgesic Efficacy of N-(3-Pyridinyl)-Bridged Bicyclic Diamines, Exceptionally Potent Agonists at Nicotinic Acetylcholine Receptors. J. Med. Chem. 2007, 50, […].
# [3] = Rodent pharmacokinetic study; format: in vivo; conditions: Wistar, Wister rat/Male
# Method: Rodent Pharmacokinetic Study
# Three to five animals were housed in each cage. Animals were kept fasted over night and maintained on a 12 hours light/dark cycle. Three rats were dosed NCE orally (15 or 5 mg/kg) and intravenously (5 mg/kg) on day 0 and day 2
# At each time point blood was collected by jugular vein. Plasma was stored frozen at −20° C. until analysis. The concentrations of the NCE compound in plasma were determined using LC-MS/MS method. Schedule time points: Pre dose 0.25, 0.5, 1, 1.5, 2, 3, 4, 6, 8, 10, 12 and 24 hours after dosing (n=3).
# Pharmacokinetic parameters Cmax, Tmax, AUCt, T1/2 and Bioavailability were calculated by non-compartmental model using software WinNonlin version 5.0.1.
# in vivo = conditions: male, Wistar, rat, po, 15 mg/kg
# Method: Rodent Brain Penetration Study
# (§1) Three animals were housed in each cage. Animals were given water and food ad libitum throughout the experiment, and maintained on a 12 hours light/dark cycle.
# (§2) NCE compound was dissolved in water and administered orally. At Tmax (0.5, 1.0 and 2.0) animals were sacrificed to collect the plasma and brain tissue and were homogenized. Plasma and Brain was stored frozen at −20° C. until analysis. The concentrations of the NCE compound in plasma and Brain were determined using LC-MS/MS method.
# (§3) The NCE compounds were quantified in plasma and brain homogenate by validated LC-MS/MS method using solid phase extraction technique. NCE compounds were quantified in the calibration range of 1-500 ng/mL in plasma and brain homogenate. Study samples were analyzed using calibration samples in the batch and quality control samples spread across the batch. Extents of brain-blood ratio were calculated (Cb/Cp).
# Male Wister rats = assay: Object recognition task model; format: in vivo, rat; conditions: p.o.; for Exploration time mean ± S.E.M, Familiar object / Exploration time mean ± S.E.M, Novel object: choice trial
# Method: Object Recognition Task Model
# The cognition-enhancing properties of compounds of this invention were estimated using a model of animal cognition: the object recognition task model.
# Male Wister rats (230-280 grams) obtained from N. I. N. (National Institute of Nutrition, Hyderabad, India) was used as experimental animals. Four animals were housed in each cage. […] Also the rats were habituated to individual arenas for 1 hour in the absence of any objects.
# One group of 12 rats received vehicle (1 mL/Kg) orally and another set of animals received compound of the formula (I) either orally or i.p., before one hour of the familiar (T1) and choice trial (T2).
# The experiment was carried out in a 50×50×50 cm open field made up of acrylic. In the familiarization phase, (T1), the rats were placed individually in the open field for 3 minutes, in which two identical objects (plastic bottles, 12.5 cm height×5.5 cm diameter) covered in yellow masking tape alone (a1 and a2) were positioned in two adjacent corners, 10 cm. from the walls. After 24 hours of the (T1) trial for long-term memory test, the same rats were placed in the same arena as they were placed in T1 trial. Choice phase (T2) rats were allowed to explore the open field for 3 minutes in presence of one familiar object (a3) and one novel object (b) (Amber color glass bottle, 12 cm high and 5 cm in diameter). Familiar objects presented similar textures, colors and sizes. During the T1 and T2 trial, explorations of each object (defined as sniffing, licking, chewing or having moving vibrissae whilst directing the nose towards the object at a distance of less than 1 cm) were recorded separately by stopwatch. Sitting on an object was not regarded as exploratory activity, however, it was rarely observed.
# T1 is the total time spent exploring the familiar objects (a1+a2).
# T2 is the total time spent exploring the familiar object and novel object (a3+b).
# The object recognition test was performed as described by Ennaceur, A., Delacour, J., 1988, A new one-trial test for neurobiological studies of memory in rats—Behavioural data, Behav. Brain Res., 31, 47-59.
# [4] = Rodent brain penetration study; conditions: male, Wistar, rat, brain homogenate and plasma, po, 5 mg/kg
# Method: Rodent Brain Penetration Study
# as §1, §2, §3
# [5] = plasma, 5 mg/kg Per-Oral vs 5 mg/kg Intravenous
# T1 sequence (P43681 29-627 limits assumed): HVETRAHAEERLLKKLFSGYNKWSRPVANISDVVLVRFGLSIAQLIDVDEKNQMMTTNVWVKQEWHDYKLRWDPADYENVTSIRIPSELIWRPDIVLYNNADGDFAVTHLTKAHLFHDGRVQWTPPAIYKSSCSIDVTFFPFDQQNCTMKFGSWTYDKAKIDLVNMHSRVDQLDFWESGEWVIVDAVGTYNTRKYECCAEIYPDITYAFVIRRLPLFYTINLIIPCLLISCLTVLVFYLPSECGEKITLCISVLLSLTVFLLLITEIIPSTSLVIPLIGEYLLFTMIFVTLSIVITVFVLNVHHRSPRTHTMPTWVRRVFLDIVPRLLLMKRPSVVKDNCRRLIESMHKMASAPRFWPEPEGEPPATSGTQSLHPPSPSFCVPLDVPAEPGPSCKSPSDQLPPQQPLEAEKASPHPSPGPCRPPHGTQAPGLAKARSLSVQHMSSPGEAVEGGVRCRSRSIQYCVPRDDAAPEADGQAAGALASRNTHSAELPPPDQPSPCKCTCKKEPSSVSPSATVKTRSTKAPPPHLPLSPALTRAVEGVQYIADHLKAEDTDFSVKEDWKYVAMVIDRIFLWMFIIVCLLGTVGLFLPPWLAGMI
# T1 sequence (P17787 26-502): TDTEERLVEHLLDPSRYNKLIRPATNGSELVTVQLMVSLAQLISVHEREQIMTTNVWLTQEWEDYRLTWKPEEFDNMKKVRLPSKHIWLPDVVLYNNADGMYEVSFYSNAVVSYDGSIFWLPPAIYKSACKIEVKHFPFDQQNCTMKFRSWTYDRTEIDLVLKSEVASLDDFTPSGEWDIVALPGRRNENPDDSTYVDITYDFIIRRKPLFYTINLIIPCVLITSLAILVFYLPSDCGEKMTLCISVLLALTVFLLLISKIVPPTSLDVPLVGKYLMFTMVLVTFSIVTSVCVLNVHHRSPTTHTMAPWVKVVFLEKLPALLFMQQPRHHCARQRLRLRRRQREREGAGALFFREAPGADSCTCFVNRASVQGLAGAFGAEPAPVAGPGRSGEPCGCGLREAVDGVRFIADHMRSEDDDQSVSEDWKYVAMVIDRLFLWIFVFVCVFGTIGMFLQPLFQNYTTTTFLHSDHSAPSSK
Compound,Ki [2] [nM],"AUC(0-t) ([3]; plasma, 5 mg/kg, Intravenous) [ng·h/mL]","Cmax ([3]; plasma, 5 mg/kg, Intravenous) [ng/mL]","Tmax ([3]; plasma, 5 mg/kg, Intravenous) [min]","half-life ([3]; plasma, 5 mg/kg, Intravenous) [min]","bioavailability [3, 5] [%]","AUC(0-t) ([3]; plasma, 5 mg/kg, Per-Oral) [ng·h/mL]","Cmax ([3]; plasma, 5 mg/kg, Per-Oral) [ng/mL]","Tmax ([3]; plasma, 5 mg/kg, Per-Oral) [min]","half-life ([3]; plasma, 5 mg/kg, Per-Oral) [min]",other results
"CN(C)CC1CC2CC2N1c1cncc(Br)c1.Cl (stereo not drawn) [Example 1, N-[2-(5-Bromopyridin-3-yl)-2-azabicyclo[3.1.0]hex-3-ylmethyl]-dimethylamine hydrochloride]",23,901 ± 47,1940 ± 260,8.4 ± 6,59.4 ± 15,–,–,–,–,–,"Kb ([1]; read-out: Kb): 1.4 nM; bioavailability ([3]; plasma, 15 mg/kg Per-Oral vs 5 mg/kg Intravenous): 10 ± 5%; AUC(0-t) ([3]; plasma, 15 mg/kg, Per-Oral): 273 ± 160 ng·h/mL; Cmax ([3]; plasma, 15 mg/kg, Per-Oral): 219 ± 120 ng/mL; Tmax ([3]; plasma, 15 mg/kg, Per-Oral): 15 min; half-life ([3]; plasma, 15 mg/kg, Per-Oral): 34.8 ± 7.8 min"
"Brc1cncc(N2C(CN3CCNCC3)CC3CC32)c1 (stereo not drawn) [Example 8, 2-(5-Bromopyridin-3-yl)-3-(piperazin-1-ylmethyl)-2-azabicyclo[3.1.0]hexane]",610,–,–,–,–,–,–,–,–,–,Kb ([1]; Kb): 4.6 nM
"Brc1cncc(N2C(CN3CCNCC3)CC3CC32)c1 (stereo not drawn) [Example 9, 2-(5-Bromopyridin-3-yl)-3-(piperazin-1-ylmethyl)-2-aza-bicyclo[3.1.0]hexane]",–,–,–,–,–,–,–,–,–,–,Kb ([1]; Kb): 73.1 nM
"CN(C)CC1CC2CC2N1c1cccnc1 (stereo not drawn) [Example 10, N-[2-(Pyridin-3-yl)-2-azabicyclo[3.1.0]hex-3-ylmethyl]dimethylamine]",77,–,–,–,–,–,–,–,–,–,Kb ([1]; read-out: Kb): 3.4 nM
"CNCC1CC2CC2N1c1cncc(Br)c1 (stereo not drawn) [Example 11, N-[2-(5-Bromopyridin-3-yl)-2-azabicyclo[3.1.0]hex-3-ylmethyl]methylamine]",46.4,–,–,–,–,–,–,–,–,–,"AUC(0-t) ([3]; in vivo, 5 mg/kg, Intravenous): 2540 ± 1300 ng·h/mL; Cmax ([3]; in vivo, 5 mg/kg, Intravenous): 1440 ± 330 ng/mL; Tmax ([3]; in vivo, 5 mg/kg, Intravenous): 4.8 min; half-life ([3]; in vivo, 5 mg/kg, Intravenous): 87 ± 31.8 min; bioavailability ([3]; in vivo, 15 mg/kg Per-Oral vs 5 mg/kg Intravenous): 59 ± 31%; AUC(0-t) ([3]; in vivo, 15 mg/kg, Per-Oral): 3880 ± 846 ng·h/mL; Cmax ([3]; in vivo, 15 mg/kg, Per-Oral): 1990 ± 435 ng/mL; Tmax ([3]; in vivo, 15 mg/kg, Per-Oral): 18.6 ± 7.8 min; half-life ([3]; in vivo, 15 mg/kg, Per-Oral): 115 ± 72 min; Kp (in vivo): 8.75 ± 1.59"
"CNCC1CC2CC2N1c1cncc(Cl)c1.O=C(O)/C=C/C(=O)O (stereo not drawn) [Example 12, N-[2-(5-Chloropyridin-3-yl)-2-azabicyclo[3.1.0]hex-3-ylmethyl]methylamine fumarate]",77.3,–,–,–,–,–,–,–,–,–,"Inference (Male Wister rats; 1 mg/kg): Active; Exploration time mean ± S.E.M, Familiar object (Male Wister rats; 1 mg/kg): 4.651 ± 0.619 s; Exploration time mean ± S.E.M, Novel object (Male Wister rats; 1 mg/kg): 16.70 ± 2.136 s"
"CNCC1CC2CC2N1c1cncnc1.O=C(O)/C=C/C(=O)O (stereo not drawn) [Example 21, N-(2-(pyrimidin-5-yl)-2-azabicyclo[3.1.0]hex-3-ylmethyl)methyl amine fumarate]",465,2030 ± 525,1570 ± 261,4.8,85.8 ± 10.8,101 ± 20,1970 ± 100,685 ± 107,37.8 ± 15,78 ± 22.2,Kp [4]: 1.74 ± 0.27
"NCC1CC2CC2N1c1cncnc1.O=C(O)/C=C/C(=O)O (stereo not drawn) [Example 22, N-(2-(pyrimidin-5-yl)-2-azabicyclo[3.1.0]hex-3-ylmethyl) amine fumarate]",58.1,2250 ± 228,1380 ± 156,15,80.4 ± 4.2,89 ± 9,2020 ± 377,1100 ± 211,4.8,97.8 ± 6.6,–
"CNCC1CC2CC2N1c1ccc(C(F)(F)F)nc1.O=C(O)/C=C/C(=O)O (stereo not drawn) [Example 23, N-(2-(2-trifluoromethylpyridin-5-yl)-2-azabicyclo[3.1.0]hex-3-ylmethyl) methyl amine fumarate]",2,18000 ± 3300,3640 ± 89,4.8,415 ± 145,67 ± 9,12000 ± 1740,2310 ± 163,19.8 ± 8.4,307 ± 11.4,Kp [4]: 1.97 ± 0.08
"NCC1CC2CC2N1C(=O)c1ccco1.O=C(O)C(O)C(O)C(=O)O (stereo not drawn) [Example 35, (3-Aminomethyl-2-aza bicyclo[3.1.0]hex-2-yl) furan-2-yl methanone tartrate]",38.7,1420 ± 71,1780 ± 56,4.8,67.8 ± 9,92 ± 8,1310 ± 146,998 ± 175,19.8 ± 8.4,89.4 ± 15.6,"Inference (Male Wister rats; 0.3 mg/kg): Active; Exploration time mean ± S.E.M, Familiar object (Male Wister rats; 0.3 mg/kg): 5.30 ± 1.05 s; Exploration time mean ± S.E.M, Novel object (Male Wister rats; 0.3 mg/kg): 14.90 ± 7.74 s"
"NCC1CC2CC2N1C(=O)c1cccnc1 (stereo not drawn) [Example 38, (3-Aminomethyl-2-aza bicyclo[3.1.0]hex-2-yl) pyridin-3-yl methanone tartarate]",45,–,–,–,–,–,–,–,–,–,–
"NCC1CC2CC2N1C(=O)c1ccncc1 (stereo not drawn) [Example 39, (3-Aminomethyl-2-aza-bicyclo[3.1.0]hex-2-yl) pyridin-4-yl methanone tartarate]",109,–,–,–,–,–,–,–,–,–,–

# Reference: patent US8653071B2, “α4β2 neuronal nicotinic acetylcholine receptor ligands” (Suven Life Sciences Limited, priority 2009, dated 2014)
